{"source": "patent US11225470B2", "about": "“Tetrazolinone compounds and its use as pest control agents” (SUMITOMO CHEMICAL COMPANY, LIMITED, priority 2016, dated 2022)", "format_in_all_cases": "in vivo", "key": {"[1]": {"test_system": "kidney bean sclerotinia rot fungi (Sclerotinia sclerotiorum)", "assay": "kidney bean sclerotinia rot test", "settings": "200 ppm foliar spray; kidney bean cv NAGAUZURA SAITO; observed after four days", "procedure": "Each of plastic pots was filled with soil and thereto Kidney bean (cv; NAGAUZURA SAITO) seeds were sown and the kidney beans were grown in a greenhouse for 8 days. Thereafter, any of the present compounds 1-1, 1-2, 1-3, 1-5, 1-10, 3-16, 3-22, 4-2, 4-3, 4-4, 4-8, or 6-2, each of which was made to a formulation according to the similar method to that of Formulation Example 6, was mixed with water so as to be a prescribed concentration (500 ppm). The adjusted solutions were sprayed to foliar parts so as to adhere adequately on the leaves of the above-mentioned kidney bean. After spraying the mixtures, the kidney beans were air-dried and a PDA medium containing hyphae of kidney bean sclerotinia rot fungi (Sclerotinia sclerotiorum) was placed on the leaves of the kidney bean. After the inoculation, all kidney beans were placed under a high humidity during only night and after four days, a lesion area was observed.\nEach of plastic pots was filled with soil and thereto Kidney bean (cv; NAGAUZURA SAITO) seeds were sown and the kidney beans were grown in a greenhouse for 8 days. […] The adjusted solutions were sprayed to foliar parts so as to adhere adequately on the leaves of the above-mentioned kidney bean. […]"}, "[2]": {"test_system": "soybean frogeye leaf spot disease fungi (Cercospora sojina)", "assay": "soybean frogeye leaf spot test, spraying after inoculation", "settings": "200 ppm foliar spray 5 days after inoculation; soybean cv TACHINAGAHA"}, "[3]": {"test_system": "wheat leaf blotch fungi (Septoria tritici)", "assay": "wheat leaf blotch test on 45-day wheat, plants placed outside for 4 days before inoculation", "settings": "300 ppm, 200 L/ha, Formulation Example 4, wheat cv APOGEE grown 45 days", "from_the_text": "Each of plastic pots was filled with soil and wheat (cultivar: APOGEE) was sown, and the […] grown in a greenhouse for 45 days. Then, the comparative test compound cf3, the present compound E-15, or E-16, each of which was made to a formulation according to the similar method to that of Formulation Example 4, was mixed with water so as to be 300 ppm. The mixtures were sprayed to foliar parts of the wheat by the volume of 200 L/ha. After spraying the mixtures, the […], and placed outside for 4 days. Thereafter, an aqueous suspension of the spores of wheat leaf blotch fungi (Septoria tritici) was spraying-inoculated."}, "[4]": {"test_system": "soybean frogeye leaf spot disease fungi (Cercospora sojina)", "assay": "soybean frogeye leaf spot test, spraying before inoculation", "settings": "3.1 ppm foliar spray, inoculation after 2 days; soybean cv Tachinagaha"}, "[5]": {"test_system": "kidney bean sclerotinia rot fungi (Sclerotinia sclerotiorum)", "assay": "kidney bean sclerotinia rot test, plants placed outside for 6 days before inoculation", "settings": "200 ppm foliar spray, observed after six days", "from_the_text": "Each of plastic pots was filled with soil and kidney bean (cultivar: NAGAUZURA SAITO) was sown and grown in a greenhouse for 8 days. Then, the comparative test compound cf5, the present compound E-1, E-3, E-11, or E-16, each of which was made to a formulation according to the similar method to that of Formulation Example 6, was mixed with water so as to be 200 ppm. The mixtures were sprayed to foliar parts so as to adhere adequately on the leaves of the above-mentioned kidney bean. After spraying the mixtures, the kidney beans were air-dried, and placed outside for 6 days. Thereafter, a PDA medium containing hyphae of kidney bean sclerotinia rot fungi (Sclerotinia sclerotiorum) was placed on the leaves of the kidney bean. After the inoculation, all kidney beans were placed indoors under a high humidity during only night and after six days, a lesion area was observed."}}}
{"smiles": "CCC(=NN=C(C)c1ccc2ccccc2c1)OCc1c(C)cccc1-n1nnn(C)c1=O", "note": "[cf1]", "values": [{"measurement": "lesion area compared to the lesion area in an untreated kidney bean", "setting": "[1]", "value": "≥ 50", "unit": "%"}, {"measurement": "lesion area compared to the lesion area in an untreated soybean", "setting": "[2]", "value": "≥ 50", "unit": "%"}]}
{"smiles": "CCC(=NN=C(C)c1ccc(F)cc1)OCc1c(C)cccc1-n1nnn(C)c1=O", "note": "[cf3]", "values": [{"measurement": "lesion area compared to the lesion area in an untreated wheat", "setting": "[3]", "value": "≥ 80", "unit": "%"}]}
{"smiles": "CCC(=NN=C(C)c1ccccc1)OCc1c(C)cccc1-n1nnn(C)c1=O", "note": "[cf5]", "values": [{"measurement": "area of lesion compared to that on an untreated bean", "setting": "[4]", "value": "more than 70%"}, {"measurement": "lesion area compared to the lesion area in an untreated kidney bean", "setting": "[5]", "value": "≥ 70", "unit": "%"}]}
